# Data taken from patent publication US20250057756A1, “FORMULATIONS AND DOSES OF PEGYLATED URICASE” (Cartesian Therapeutics, Inc., priority 2016, published 2025).
# Values joined by “and” are separate entries in the source; they are usually repeats but may differ in a detail not shown here. Identical values can stand only once. Like-named read-outs stand apart in the source and are kept apart here.
# Columns and labels:
# [1] = cited from earlier work; for subjects requiring treatment for at least one gout flare: first 8 weeks, with gout flare prophylaxis
# [2] = cited from earlier work; for patients with gout flares requiring treatment in a month: colchicine prophylaxis
# [3] = tested on: serum uric acid (SUA); conditions: cited from earlier work
# [4] = tested on: uric acid; conditions: cited from earlier work; for mean uric acid levels at four weeks: monthly dosing
# [5] = tested on: ADAs; conditions: all KRYSTEXXA-treated subjects; cited from earlier work
# [6] = cited from earlier work; for flares per patient over the first 3 months: Phase 3; for Flares per patient month: Phase 3 trials
# [7] = tested on: uricase specific ADAs; assay: Uricase specific ADA formation in uricase deficient mice; format: in vivo; conditions: treated days 0, 7 and 14, pegsiticase alone challenge days 35 and 42
# Protocol: (§1) A pharmacology study in mice that were genetically deficient in endogenous uricase was conducted. The study evaluated the efficacy of a dose regimen consisting of three immunizations with SEL 212 followed by doses of pegsiticase alone in preventing the formation of ADAs to pegsiticase. The treatment period consisted of the first 14 days of the study. In the study, mice were separated into three treatment groups. During the treatment period: • the first group, referred to as the Untreated Group, received no treatment; • the second group, referred to as the Pegsiticase Group, was treated with pegsiticase alone; and • the third group, referred to as the SVP Rapamycin+Pegsiticase Group, was treated with SVP Rapamycin co administered with pegsiticase.
# (§2) The Pegsiticase Group and SVP Rapamycin+Pegsiticase Group were treated on days zero, seven and 14 of the treatment period. Each group was then treated with pegsiticase alone on days 35 and 42 of the study, or the challenge period. Uricase specific ADA levels were recorded to determine the formation of ADAs to pegsiticase. Uric acid levels were measured to determine effectiveness of SVP Rapamycin co administered with pegsiticase in lowering uric acid levels below 6 mg/dl, which is the treatment target for gout patients.
# [8] = tested on: uric acid; assay: Uric acid levels in uricase deficient mice; format: in vivo
# Protocol: as §1, §2
# [9] = tested on: serum uric acid; assay: Phase 1a clinical trial: serum uric acid; format: in vivo, human
# Protocol: (§3) The Phase 1a clinical trial for SEL 212 was an ascending dose trial of pegsiticase alone in 22 subjects with elevated serum uric acid levels greater than 6 mg/dl who were separated into five cohorts. Each cohort received a single intravenous infusion of pegsiticase at the following dose levels of 0.1 mg/kg for Cohort #1, 0.2 mg/kg for Cohort #2, 0.4 mg/kg for Cohort #3, 0.8 mg/kg for Cohort #4 and 1.2 mg/kg for Cohort #5. Dosing began with the lowest dose and only after an entire cohort was safely dosed was the next cohort started. The subjects were monitored during a 30 day period post infusion with visits occurring on day 7, 14,21 and the end of trial visit on day 30. Blood and serum of each patient was evaluated for serum uric acid, ADAs (specifically anti-peg, anti-uricase and anti-pegsiticase) and safety parameters.
# FIG. 4 depicts average serum uric acid levels of the Phase 1a clinical trial's five cohorts tested at different measurement intervals (Day 7, 14, 21 and 30) during the course of the 30 day period following the single intravenous infusion of pegsiticase at the outset of the trial.
# The serum uric acid levels were measured at baseline and days seven, 14, 21 and 30 and uricase specific ADA levels at baseline and days seven, 14 and 30 following a single intravenous injection of pegsiticase. Uricase specific ADA levels at day 21 in the Phase 1a clinical trial were not measured. Based on the results from the Phase 1a clinical trial, it was observed that pegsiticase at a tolerated dose is capable of achieving and maintaining a reduction of serum uric acid below the target of 6 mg/dl for a 30 day period in the absence of inhibitory uricase specific ADAs.
# [10] = tested on: uricase specific ADAs; assay: Phase 1a clinical trial: uricase specific ADAs; format: in vivo, human; conditions: single infusion; varying levels
# Protocol: as §3
# The serum uric acid levels were measured at baseline and days seven, 14, 21 and 30 and uricase specific ADA levels at baseline and days seven, 14 and 30 following a single intravenous injection of pegsiticase. Uricase specific ADA levels at day 21 in the Phase 1a clinical trial were not measured. […]
# [11] = Phase 1a clinical trial: safety; format: in vivo, human; conditions: single intravenous infusion, five dose levels 0.1-1.2 mg/kg
# Protocol: as §3
# [12] = tested on: serum uric acid; assay: Phase 1b clinical trial: serum uric acid; format: in vivo, human
# Protocol: (§4) The Phase 1b clinical trial enrolled 63 patients with serum uric acid levels greater than 6 mg/dl separated into 11 cohorts. A single intravenous infusion of SVP Rapamycin alone at the following ascending dose levels was administered to four cohorts in ascending order. Each cohort consisted of seven patients and were designated as follows: Cohort #1 (0.03 mg/kg), Cohort #3 (0.1 mg/kg), Cohort #5 (0.3 mg/kg) and Cohort #7 (0.5 mg/kg) collectively the SVP Rapamycin Cohorts. After a cohort of the SVP-Rapamycin alone had successfully and safely been dosed the corresponding dose level of SVP Rapamycin was combined with a fixed dose of pegsiticase (0.4 mg/kg). The combination was co-administered sequentially as a single intravenous infusion, with the SVP Rapamycin infusion preceding the pegsiticase infusion. […] The subjects were monitored during a 30 day period post infusion with visits occurring on day 7, 14,21 and the end of trial visit on day 30. Blood and serum of each patient was evaluated for serum uric acid, ADAs (specifically anti-PEG, anti-uricase and anti-pegsiticase) and safety parameters. […]
# [13] = tested on: uricase specific ADAs; assay: Phase 1b clinical trial: uricase specific ADAs; format: in vivo, human; conditions: pegsiticase alone 0.4 mg/kg, Cohort #3 Phase 1a and Cohort #9 Phase 1b; resulting in return to baseline serum uric acid
# Protocol: as §4
# In the Phase 1a clinical trial, uricase specific ADA levels at day 21 was not measured. […] As a result, for the Phase 1b clinical trial, uricase specific ADA levels at day 21 were monitored.
# [14] = Phase 1a and Phase 1b clinical trials: safety and tolerability; format: in vivo, human; conditions: 85 subjects dosed in Phase 1a and Phase 1b
# Protocol: as §3
# The Phase 1b clinical trial enrolled 63 patients with serum uric acid levels greater than 6 mg/dl separated into 11 cohorts. A single intravenous infusion of SVP Rapamycin alone at the following ascending dose levels was administered to four cohorts in ascending order. […] The subjects were monitored during a 30 day period post infusion with visits occurring on day 7, 14,21 and the end of trial visit on day 30. Blood and serum of each patient was evaluated for serum uric acid, ADAs (specifically anti-PEG, anti-uricase and anti-pegsiticase) and safety parameters. […]
# [15] = Gout flare in first month, pegsiticase alone (Phase 1, Table 1); format: in vivo, human
# Protocol: as §3
# When pegsiticase was administered alone in the Phase 1 described in Example 2, 57% (4 out of 7 patients) of those with a history of gout had signs of gout flare in the first month after receiving the study drug (Table 1). […] This subject was in the cohort that received only the rapamycin-comprising nanocarrier (without uricase). […] The flare was, therefore, unrelated to a change in serum uric acid. […] This patient's serum uric acid level dropped from 8.8 mg/dL to 0.1 mg/dL within 90 minutes following drug administration. So, although this subject had only been diagnosed with asymptomatic hyperuricemia before the study, a flare did seem to coincide with a drop in serum uric acid.
compound,measurement,setting,value
"Cc1nc(-c2ccc(OCC(C)C)c(C#N)c2)sc1C(=O)O [Febuxostat, febuxostat]",Flares per patient month,[1]; 80 mg/day,0.77 flares per patient month
same,subjects requiring treatment for at least one gout flare,[1]; 80 mg/day,55 out of 255
same,Flares per patient month,"[1]; 80 mg/day, listed as febuxostat",at least 0.22 flares per patient month
same,Flares per patient month,[1]; 120 mg/day,0.36 flares per patient month
same,subjects requiring treatment for at least one gout flare,[1]; 120 mg/day,90 out of 250
same,Flares per patient month,"[1]; 120 mg/day, listed as febuxostat",≥ 0.36 flares per patient month
"O=C(O)CSc1nnc(Br)n1-c1ccc(C2CC2)c2ccccc12 [Lesinurad, lesinurad]",patients with gout flares requiring treatment in a month,[2]; 200 mg daily,10 out of 46
same,Flares per patient month,[2]; 200 mg/day,0.22 flares per patient month
same,patients with gout flares requiring treatment in a month,[2]; 400 mg daily,13 out of 42
same,Flares per patient month,[2]; 400 mg/day,0.31 flares per patient month
same,patients with gout flares requiring treatment in a month,[2]; 600 mg daily,15 out of 48
same,Flares per patient month,[2]; 600 mg/day,0.31 flares per patient month
same,Time of efficacy (area under curve of mean sUA levels over time),[3]; Lesinurad 200 mg/day,158.5
same,Time of efficacy (area under curve of mean sUA levels over time),[3]; Lesinurad 400 mg/day,165.8
same,Time of efficacy (area under curve of mean sUA levels over time),[3]; Lesinurad 600 mg/day,167.5
Pegloticase,"non-responders, share of subjects",[4]; monthly dosing cohorts,65%
same,subjects classified as responders (uric acid below 6 mg/dl for 80% of the time at months three and six),[4]; monthly dosing cohorts,35%
same,mean uric acid levels at four weeks,[4]; non-responders,above 6 mg/dl
same,mean uric acid levels at four weeks,[4]; responders,above 4 mg/dl
same,treated subjects that developed ADAs,[5],89%
same,flares per patient over the first 3 months,"[6]; biweekly pegloticase, 85 patients",2.3
same,flares per patient over the first 3 months,"[6]; monthly pegloticase, 84 patients",2.7
same,Flares per patient month,[6]; pegloticase biweekly,0.77 flares per patient month
same,Flares per patient month,[6]; pegloticase monthly,0.90 flares per patient month
same,Flares per patient month,"[6]; pegloticase monthly, listed as pegloticase",0.9 flares per patient month
same,study subjects reporting one or more flares,"[6]; phase 2 trial, three-month study",88%
same,patients with gout flares in the first 3 months,"[6]; two phase 3 trials, despite gout flare prophylaxis (colchicine or NSAIDs)",about 80%
same,Time of efficacy (area under curve of mean sUA levels over time),"[3]; Pegloticase biweekly, Nonresponders",Nonresponders-84.35
same,Time of efficacy (area under curve of mean sUA levels over time),"[3]; Pegloticase biweekly, Responders",Responders-26.6
same,Time of efficacy (area under curve of mean sUA levels over time),"[3]; Pegloticase monthly, Nonresponders",Nonresponders-99.75
same,Time of efficacy (area under curve of mean sUA levels over time),"[3]; Pegloticase monthly, Responders",Responders-53.55
Recombinant Pegylated Candida Urate Oxidase [pegsiticase],uricase specific ADA formation,[7],developed uricase specific ADAs
same,uric acid levels,[8]; after the first dose in the treatment period,below 6 mg/dl
same,uric acid levels,[8]; subsequent doses in the treatment period and challenge period,> 6 mg/dL
same,time average serum uric acid levels sustained below 6 mg/dl,"[9]; each cohort, depending on the dose level",14 to 30 days
same,time within which serum uric acid levels dropped significantly,"[9]; single intravenous infusion, all 22 subjects",approximately 10 hours
same,time after dosing by which serum uric acid levels rebounded,"[9]; single intravenous infusion, majority of patients",14 to 21 days
same,uricase specific ADAs,[10],induced uricase specific ADAs in all subjects
same,serious adverse events,[11],no serious adverse events
same,tolerability,[11],well tolerated
same,subjects returned to baseline serum uric acid levels by day 30,[12]; Cohort #9: pegsiticase alone 0.4 mg/kg,four of the five
same,serum uric acid levels,"[12]; pegsiticase alone 0.4 mg/kg, Cohort #3 Phase 1a and Cohort #9 Phase 1b, initial control, enzyme activity lost past day 14",below 6 mg/dL
same,uricase specific ADA formation,[13],uricase specific ADA formation at day 14
same,tolerability,[14],well tolerated
same,Flare in 1st month,"[15]; individual subject with history of gout, SEL-037 0.8 mg/kg",no
same,Flare in 1st month,"[15]; individual subjects with history of gout, SEL-037 0.1 mg/kg, 0.1 mg/kg",no and yes (2×) and yes (positive for
same,Flare in 1st month,"[15]; individual subjects with history of gout, SEL-037 0.2 mg/kg, 0.2 mg/kg","no and yes (mild gout, right"
same,subjects with a history of gout with signs of gout flare in the first month,"[15]; pegsiticase alone, Phase 1, 4 out of 7 patients",57%
